#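 Cultured in 96-well plates, cells were exposed to test compound for 48 hours across five concentrations. At the TGI there is no net growth.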
# Tests used:
# Experiment in all cases: NCI anticancer screen, dose series, 48 h
# [1] = system: COLO 205 colon
# [2] = system: K-562 leukemia
# [3] = system: MDA-MB-231 breast
# [4] = system: SNB-19 CNS
# [5] = system: ACHN renal
# [6] = system: HCC-2998 colon
# [7] = system: CAKI-1 renal
# [8] = system: IGROV1 ovarian
# [9] = system: A549 NSCLC
# [10] = system: SNB-75 CNS
# [11] = system: U251 CNS
# [12] = system: PC-3 prostate
# [13] = system: OVCAR-5 ovarian
# [14] = system: HCT-15 colon
# [15] = system: RXF 393 renal
# [16] = system: MCF7 breast
# [17] = system: TK-10 renal
# [18] = system: HT29 colon
# [19] = system: M14 melanoma
# [20] = system: A498 renal
# [21] = system: HCT-116 colon
# [22] = system: LOX IMVI melanoma
# [23] = system: HS 578T breast
# [24] = system: SK-MEL-5 melanoma
# [25] = system: NCI-H522 lung
# [26] = system: SF-268 CNS
# [27] = system: OVCAR-3 ovarian
# [28] = system: MDA-MB-435
# [29] = system: MALME-3M melanoma
# [30] = system: UO-31 renal
# [31] = system: CCRF-CEM leukemia
# [32] = system: MDA-N
# [33] = system: NCI-H460 lung
# [34] = system: SF-539 CNS
# [35] = system: NCI-H226 lung
# [36] = system: SR leukemia
# [37] = system: OVCAR-8 ovarian
# [38] = system: SW-620 colon
# [39] = system: BT-549 breast
# [40] = system: T-47D breast
# [41] = system: 786-0 renal
# [42] = system: HOP-62 NSCLC
# [43] = system: UACC-257 melanoma
# [44] = system: OVCAR-4 ovarian
# [45] = system: NCI-H23 lung
# [46] = system: DU-145 prostate
# [47] = system: SK-MEL-2 melanoma
# [48] = system: HOP-92 NSCLC
# [49] = system: SF-295 CNS
# [50] = system: EKVX NSCLC
# [51] = system: UACC-62 melanoma
# [52] = system: SK-OV-3 ovarian
# [53] = system: NCI/ADR-RES ovarian
# [54] = system: KM12 colon
# [55] = system: MOLT-4 leukemia
# [56] = system: SN12C renal
# [57] = system: SK-MEL-28 melanoma
# [58] = system: HL-60(TB) leukemia
# [59] = system: RPMI-8226 leukemia
structure (smiles),measurement,setting,value
CC(=O)OC1CC(OC2C(O)CC(OC3C(O)CC(OC4CCC5(C)C(CCC6C5CC(O)C5(C)C(C7=CC(=O)OC7)CCC65O)C4)OC3C)OC2C)OC(C)C1O (stereo unspecified) (tested in a mixture with another compound),TGI,[1],0.168 µM
same,TGI,[2],0.0685 µM
same,TGI,[3],0.518 µM
same,TGI,[4],0.458 µM
same,TGI,[5],0.0818 µM
same,TGI,[6],0.463 µM
same,TGI,[7],0.0818 µM
same,TGI,[8],0.176 µM
same,TGI,[9],0.0259 µM
same,TGI,[10],0.191 µM
same,TGI,[11],0.0801 µM
same,TGI,[12],0.123 µM
same,TGI,[13],0.12 µM
same,TGI,[14],0.107 µM
same,TGI,[15],0.0812 µM
same,TGI,[16],0.216 µM
same,TGI,[17],0.114 µM
same,TGI,[18],0.0954 µM
same,TGI,[19],0.231 µM
same,TGI,[20],0.307 µM
same,TGI,[21],0.039 µM
same,TGI,[22],0.0944 µM
same,TGI,[23],0.435 µM
same,TGI,[24],0.0838 µM
same,TGI,[25],0.0275 µM
same,TGI,[26],0.119 µM
same,TGI,[27],0.0507 µM
same,TGI,[28],0.357 µM
same,TGI,[29],0.0479 µM
same,TGI,[30],0.169 µM
same,TGI,[31],> 100 µM
same,TGI,[32],0.147 µM
same,TGI,[33],0.0368 µM
same,TGI,[34],0.113 µM
same,TGI,[35],0.176 µM
same,TGI,[36],> 100 µM
same,TGI,[37],0.129 µM
same,TGI,[38],0.268 µM
same,TGI,[39],0.201 µM
same,TGI,[40],0.41 µM
same,TGI,[41],0.13 µM
same,TGI,[42],0.152 µM
same,TGI,[43],0.305 µM
same,TGI,[44],0.0538 µM
same,TGI,[45],0.0346 µM
same,TGI,[46],0.0377 µM
same,TGI,[47],0.207 µM
same,TGI,[48],0.182 µM
same,TGI,[49],0.133 µM
same,TGI,[50],0.0381 µM
same,TGI,[51],0.128 µM
same,TGI,[52],0.162 µM
same,TGI,[53],0.0732 µM
same,TGI,[54],0.116 µM
O=S(=O)(Nc1ccccc1S(=O)(=O)c1ccccc1)c1ccccc1,TGI,[55],> 100 µM
same,TGI,[1],> 100 µM
same,TGI,[2],> 100 µM
same,TGI,[3],> 100 µM
same,TGI,[4],> 100 µM
same,TGI,[5],> 100 µM
same,TGI,[6],> 100 µM
same,TGI,[7],> 100 µM
same,TGI,[8],> 100 µM
same,TGI,[9],> 100 µM
same,TGI,[10],> 100 µM
same,TGI,[11],> 100 µM
same,TGI,[12],> 100 µM
same,TGI,[13],> 100 µM
same,TGI,[14],> 100 µM
same,TGI,[15],> 100 µM
same,TGI,[16],> 100 µM
same,TGI,[17],> 100 µM
same,TGI,[18],> 100 µM
same,TGI,[19],> 100 µM
same,TGI,[20],> 100 µM
same,TGI,[21],> 100 µM
same,TGI,[22],> 100 µM
same,TGI,[23],> 100 µM
same,TGI,[56],> 100 µM
same,TGI,[24],> 100 µM
same,TGI,[25],> 100 µM
same,TGI,[26],> 100 µM
same,TGI,[27],> 100 µM
same,TGI,[28],> 100 µM
same,TGI,[29],> 100 µM
same,TGI,[30],> 100 µM
same,TGI,[31],> 100 µM
same,TGI,[32],> 100 µM
same,TGI,[34],> 100 µM
same,TGI,[35],> 100 µM
same,TGI,[36],> 100 µM
same,TGI,[37],> 100 µM
same,TGI,[38],> 100 µM
same,TGI,[39],> 100 µM
same,TGI,[57],> 100 µM
same,TGI,[40],> 100 µM
same,TGI,[58],> 100 µM
same,TGI,[41],> 100 µM
same,TGI,[42],> 100 µM
same,TGI,[43],> 100 µM
same,TGI,[59],> 100 µM
same,TGI,[44],> 100 µM
same,TGI,[45],> 100 µM
same,TGI,[46],> 100 µM
same,TGI,[47],> 100 µM
same,TGI,[48],> 100 µM
same,TGI,[49],> 100 µM
same,TGI,[50],97 µM
same,TGI,[51],> 100 µM
same,TGI,[52],> 100 µM
same,TGI,[53],> 100 µM
same,TGI,[54],> 100 µM
OC[C@H]1CC(c2nn[nH]n2)[C@H](O)[C@@H]1O (stereo partly specified),TGI,[55],> 100 µM
same,TGI,[1],> 100 µM
same,TGI,[2],> 100 µM
same,TGI,[3],> 100 µM
same,TGI,[4],> 100 µM
same,TGI,[5],> 100 µM
same,TGI,[6],> 100 µM
same,TGI,[8],> 100 µM
same,TGI,[9],> 100 µM
same,TGI,[10],> 100 µM
same,TGI,[11],> 100 µM
same,TGI,[12],> 100 µM
same,TGI,[13],> 100 µM
same,TGI,[14],> 100 µM
same,TGI,[15],> 100 µM
same,TGI,[16],> 100 µM
same,TGI,[17],> 100 µM
same,TGI,[18],> 100 µM
same,TGI,[19],> 100 µM
same,TGI,[20],> 100 µM
same,TGI,[21],> 100 µM
same,TGI,[22],> 100 µM
same,TGI,[23],> 100 µM
same,TGI,[56],> 100 µM
same,TGI,[24],> 100 µM
same,TGI,[25],> 100 µM
same,TGI,[26],> 100 µM
same,TGI,[27],> 100 µM
same,TGI,[28],> 100 µM
same,TGI,[29],> 100 µM
same,TGI,[30],> 100 µM
same,TGI,[31],> 100 µM
same,TGI,[32],> 100 µM
same,TGI,[33],> 100 µM
same,TGI,[34],> 100 µM
same,TGI,[35],> 100 µM
same,TGI,[36],> 100 µM
same,TGI,[37],> 100 µM
same,TGI,[38],> 100 µM
same,TGI,[39],> 100 µM
same,TGI,[57],> 100 µM
same,TGI,[40],> 100 µM
same,TGI,[58],> 100 µM
same,TGI,[41],> 100 µM
same,TGI,[42],> 100 µM
same,TGI,[59],> 100 µM
same,TGI,[44],> 100 µM
same,TGI,[45],> 100 µM
same,TGI,[46],> 100 µM
same,TGI,[48],> 100 µM
same,TGI,[49],> 100 µM
same,TGI,[52],> 100 µM
same,TGI,[53],> 100 µM
same,TGI,[54],> 100 µM
C=CC1=C(C)C2=NC1=CC1=NC(=C(CC)/C1=C/O)C=C1C=C3C(=O)C(C(=O)OC)C(=C4NC(=C2)C(C)C4CCC(=O)OC/C=C(\C)CCCC(C)CCCC(C)CCCC(C)C)C3=N1 (stereo unspecified) (tested in a mixture with another compound),TGI,[55],> 100 µM
same,TGI,[1],> 100 µM
same,TGI,[2],> 100 µM
same,TGI,[3],> 100 µM
same,TGI,[4],> 100 µM
same,TGI,[5],> 100 µM
same,TGI,[6],> 100 µM
same,TGI,[7],> 100 µM
same,TGI,[8],> 100 µM
same,TGI,[9],> 100 µM
same,TGI,[10],> 100 µM
same,TGI,[11],> 100 µM
same,TGI,[12],> 100 µM
same,TGI,[13],> 100 µM
same,TGI,[14],> 100 µM
same,TGI,[16],> 100 µM
same,TGI,[17],> 100 µM
same,TGI,[18],> 100 µM
same,TGI,[19],> 100 µM
same,TGI,[20],> 100 µM
same,TGI,[21],> 100 µM
same,TGI,[22],> 100 µM
same,TGI,[23],> 100 µM
same,TGI,[56],> 100 µM
same,TGI,[24],> 100 µM
same,TGI,[25],73 µM
same,TGI,[26],> 100 µM
same,TGI,[27],> 100 µM
same,TGI,[28],> 100 µM
same,TGI,[30],> 100 µM
same,TGI,[32],> 100 µM
same,TGI,[33],> 100 µM
same,TGI,[34],> 100 µM
same,TGI,[35],> 100 µM
same,TGI,[36],> 100 µM
same,TGI,[37],> 100 µM
same,TGI,[38],> 100 µM
same,TGI,[39],> 100 µM
same,TGI,[57],> 100 µM
same,TGI,[40],> 100 µM
same,TGI,[41],> 100 µM
same,TGI,[42],> 100 µM
same,TGI,[43],> 100 µM
same,TGI,[59],> 100 µM
same,TGI,[44],> 100 µM
same,TGI,[45],> 100 µM
same,TGI,[46],> 100 µM
same,TGI,[47],> 100 µM
same,TGI,[48],> 100 µM
same,TGI,[49],> 100 µM
same,TGI,[50],> 100 µM
same,TGI,[51],> 100 µM
same,TGI,[52],> 100 µM
same,TGI,[53],> 100 µM
same,TGI,[54],> 100 µM

# Reference: PubChem BioAssay (NCI)
